# Data: article PMC5466588 (Redox Biology, 2017)
# What was measured:
# Assay in all cases: Di-E-GSSG fluorescent reductase assay
# Type in all cases: biochemical
# [1] = biological target: protein disulfide isomerase (PDI) (Homo sapiens, UniProt P07237)
# [2] = biological target: T1, ERp57 (Homo sapiens, UniProt P30101)
# T1 sequence (P30101 25-505): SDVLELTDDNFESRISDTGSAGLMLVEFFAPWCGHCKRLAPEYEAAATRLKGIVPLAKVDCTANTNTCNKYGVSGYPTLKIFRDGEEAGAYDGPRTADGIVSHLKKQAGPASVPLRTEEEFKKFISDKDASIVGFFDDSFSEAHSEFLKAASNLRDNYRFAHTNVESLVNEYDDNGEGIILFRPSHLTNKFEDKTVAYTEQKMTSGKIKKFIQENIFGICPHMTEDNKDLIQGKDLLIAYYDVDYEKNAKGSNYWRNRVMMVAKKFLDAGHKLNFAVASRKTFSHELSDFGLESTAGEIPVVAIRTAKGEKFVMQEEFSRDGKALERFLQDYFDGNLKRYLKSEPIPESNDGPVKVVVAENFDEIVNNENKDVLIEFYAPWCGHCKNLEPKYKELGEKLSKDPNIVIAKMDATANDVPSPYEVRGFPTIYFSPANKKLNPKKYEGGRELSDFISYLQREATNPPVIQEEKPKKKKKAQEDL
# [3] = biological target: T2, ERp5 (Homo sapiens, UniProt Q15084)
# T2 sequence (Q15084 20-440): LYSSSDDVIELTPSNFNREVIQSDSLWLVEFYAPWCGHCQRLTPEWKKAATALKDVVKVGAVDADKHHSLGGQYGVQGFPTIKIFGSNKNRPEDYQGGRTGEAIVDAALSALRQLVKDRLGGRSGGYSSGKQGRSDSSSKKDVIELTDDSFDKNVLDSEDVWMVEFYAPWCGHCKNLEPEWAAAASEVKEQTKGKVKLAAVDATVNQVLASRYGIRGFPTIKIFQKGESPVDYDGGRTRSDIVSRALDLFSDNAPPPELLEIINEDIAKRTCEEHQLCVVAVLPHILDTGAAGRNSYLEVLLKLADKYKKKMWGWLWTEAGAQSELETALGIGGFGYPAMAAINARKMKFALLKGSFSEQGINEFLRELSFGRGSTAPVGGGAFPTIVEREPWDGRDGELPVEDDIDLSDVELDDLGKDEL
# [4] = biological target: T3, ERp72 (Homo sapiens, UniProt P13667)
# T3 sequence (P13667 21-645): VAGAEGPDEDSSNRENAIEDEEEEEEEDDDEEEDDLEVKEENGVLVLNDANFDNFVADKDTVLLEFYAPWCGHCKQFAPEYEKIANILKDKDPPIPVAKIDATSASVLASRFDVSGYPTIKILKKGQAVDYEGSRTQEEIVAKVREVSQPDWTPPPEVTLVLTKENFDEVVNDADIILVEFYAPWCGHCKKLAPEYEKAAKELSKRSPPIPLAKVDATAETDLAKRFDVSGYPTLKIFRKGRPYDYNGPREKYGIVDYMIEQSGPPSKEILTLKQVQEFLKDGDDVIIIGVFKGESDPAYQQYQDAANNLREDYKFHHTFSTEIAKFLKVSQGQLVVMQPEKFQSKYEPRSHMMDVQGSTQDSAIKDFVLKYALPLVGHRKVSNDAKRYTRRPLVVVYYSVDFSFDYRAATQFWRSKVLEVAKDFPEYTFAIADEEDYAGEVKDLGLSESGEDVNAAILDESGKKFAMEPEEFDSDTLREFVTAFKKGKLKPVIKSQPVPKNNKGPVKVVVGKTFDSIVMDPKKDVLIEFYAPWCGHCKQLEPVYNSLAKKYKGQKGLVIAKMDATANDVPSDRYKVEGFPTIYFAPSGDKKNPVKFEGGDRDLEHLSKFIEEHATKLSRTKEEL
# protein disulfide isomerase (PDI), sequence (P07237 18-508): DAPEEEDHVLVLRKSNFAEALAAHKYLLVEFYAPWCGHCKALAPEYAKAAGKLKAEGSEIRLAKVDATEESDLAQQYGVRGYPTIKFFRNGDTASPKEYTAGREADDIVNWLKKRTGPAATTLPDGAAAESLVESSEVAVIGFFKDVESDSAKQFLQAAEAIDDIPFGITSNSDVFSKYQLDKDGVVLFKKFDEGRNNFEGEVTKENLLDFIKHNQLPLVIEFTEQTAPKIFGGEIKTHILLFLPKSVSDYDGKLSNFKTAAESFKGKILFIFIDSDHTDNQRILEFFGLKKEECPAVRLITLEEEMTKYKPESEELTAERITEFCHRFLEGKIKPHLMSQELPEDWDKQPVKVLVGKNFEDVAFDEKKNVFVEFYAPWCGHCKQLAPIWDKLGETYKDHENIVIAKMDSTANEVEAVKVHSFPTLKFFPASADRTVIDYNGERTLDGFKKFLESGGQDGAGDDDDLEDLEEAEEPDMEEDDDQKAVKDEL
structure (smiles),measurement,setting,value
"COc1cc(/C=C/[N+](=O)[O-])ccc1OC(=O)c1cccc(Cl)c1Cl [HPW-RX40, 2-Methoxy-4-[(E)-2-nitrovinyl]phenyl 2,3-dichlorobenzoate]",IC50,[1],1.45 µM
same,IC50,[2],4.3 µM
same,IC50,[3],2.6 µM
same,IC50,[4],18.8 µM
